In ChEMBL document CHEMBL3853344, “A druggable target for rescuing microRNA defects” (Bioorg Med Chem Lett, 2016):
The source made the active and inactive calls. The rule behind the calls is not given here.

The molecules below were run against Translin-associated protein X (Homo sapiens, UniProt Q99598, E126A) (assay: Inhibition of wild type His-tagged translin/trax E126A mutant (unknown origin) coexpressed in Escherichia coli BL21 cells assessed as reduction in pre-miRNA degradation by gel electrophoresis assay).
For `O=c1oc2c(O)c(O)cc3c(=O)oc4c(O)c(O)cc1c4c23` [ELLAGIC ACID], the IC50 was 3.5 µM.

The molecules below were run on T1, Translin-associated protein X (Homo sapiens), Q99598 [E126A] (assay: Inhibition of wild type His-tagged translin/trax E126A mutant (unknown origin) coexpressed in Escherichia coli BL21 cells using RNase Alert as substrate at 30 uM incubated for 10 mins prior to substrate addition monitored over 60 mins by fluorescence assay).
T1 sequence (whole entry): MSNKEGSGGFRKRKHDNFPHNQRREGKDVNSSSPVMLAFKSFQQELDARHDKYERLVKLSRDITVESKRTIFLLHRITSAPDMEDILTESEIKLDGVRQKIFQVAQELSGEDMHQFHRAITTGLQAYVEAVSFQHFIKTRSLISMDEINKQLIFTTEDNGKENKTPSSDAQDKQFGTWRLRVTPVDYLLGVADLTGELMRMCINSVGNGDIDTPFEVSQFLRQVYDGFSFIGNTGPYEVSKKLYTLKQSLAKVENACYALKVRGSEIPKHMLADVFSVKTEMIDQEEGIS
`COc1cc(C)c2c(c1C=O)Oc1c(c(C)c(O)c3c1C(O)OC3=O)OC2=O` (stereo unspecified) gave an inhibition of 58%.
Work on `CCCCCCCCCCCCCCCCC(C(=O)O)C(O)(CC(=O)O)C(=O)O` (stereo unspecified) yielded an inhibition of 58%.
In the case of `CCCCC(CC)CNC(=N)NC(=N)NCCCCCCNC(=N)NC(=N)NCC(CC)CCCC` (stereo unspecified), the inhibition is reported as 103%.
With `O=C(OC[C@H]1O[C@@H](OC(=O)c2cc(O)c(O)c(OC(=O)c3cc(O)c(O)c(O)c3)c2)[C@H](OC(=O)c2cc(O)c(O)c(OC(=O)c3cc(O)c(O)c(O)c3)c2)[C@@H](OC(=O)c2cc(O)c(O)c(OC(=O)c3cc(O)c(O)c(O)c3)c2)[C@@H]1OC(=O)c1cc(O)c(O)c(OC(=O)c2cc(O)c(O)c(O)c2)c1)c1cc(O)c(O)c(OC(=O)c2cc(O)c(O)c(O)c2)c1` the inhibition was 103%.
Work on `O=c1oc2c(O)c(O)cc3c(=O)oc4c(O)c(O)cc1c4c23` [ELLAGIC ACID] yielded an inhibition of 94%.
`Oc1cc2c(cc1O)[C@@H]1c3ccc(O)c(O)c3OC[C@]1(O)C2` showed an inhibition of 63%.
With `CC(C)(O/N=C(\C(=O)N[C@@H]1C(=O)N2C(C(=O)[O-])=C(C[n+]3ccccc3)CS[C@H]12)c1csc(N)n1)C(=O)O` the inhibition was 100%.
Work on `O=C1C(O)=C(O)C(=O)C(O)=C1O` yielded an inhibition of 66%.
Molecule `O=c1c(O)c(-c2ccc(O)c(O)c2)oc2cc(O)cc(O)c12` has an inhibition of 58%.
With `O=C(O[C@@H]1Cc2c(O)cc(O)cc2O[C@@H]1c1cc(O)c(O)c(O)c1)c1cc(O)c(O)c(O)c1` the inhibition was 88%.
For `CCCCCCCCCCCCCCCC[n+]1ccccc1`, the inhibition was 56%.
`Oc1cc(O)c2c(c1)O[C@H](c1cc(O)c(O)c(O)c1)[C@H](O)C2` gave an inhibition of 68%.
Work on `O=C(Oc1cc(O)cc2c1C[C@@H](OC(=O)c1cc(O)c(O)c(O)c1)[C@@H](c1cc(O)c(O)c(O)c1)O2)c1cc(O)c(O)c(O)c1` yielded an inhibition of 83%.
Work on `O=c1c(O)cc(C2Oc3cc(O)cc(O)c3CC2O)cc2cc(O)c(O)c(O)c12` (stereo unspecified) yielded an inhibition of 75%.
Work on `O=S(=O)(O)c1cc(N=C=S)ccc1/C=C/c1ccc(N=C=S)cc1S(=O)(=O)O` yielded an inhibition of 103%.
`Oc1c(Cl)cc(Cl)c(Cl)c1Cc1c(O)c(Cl)cc(Cl)c1Cl` showed an inhibition of 66%.
`Cc1cc(O)c(C=O)c2c1C(=O)Oc1c(C)c(O)c3c(c1O2)C(O)OC3=O` (stereo unspecified) showed an inhibition of 66%.
In the case of `O=c1c(-c2cc(O)c(O)c(O)c2)coc2cc(O)c(O)c(O)c12`, the inhibition is reported as 78%.
`Cc1ccc(C(=O)Nc2ccc(S(=O)(=O)O)c3cc(S(=O)(=O)O)cc(S(=O)(=O)O)c23)cc1NC(=O)c1cccc(NC(=O)Nc2cccc(C(=O)Nc3cc(C(=O)Nc4ccc(S(=O)(=O)O)c5cc(S(=O)(=O)O)cc(S(=O)(=O)O)c45)ccc3C)c2)c1` showed an inhibition of 61%.

What follows are molecules tested on T1, Translin-associated protein X (Homo sapiens), Q99598 [E126A] (assay: Inhibition of wild type His-tagged translin/trax E126A mutant (unknown origin) coexpressed in Escherichia coli BL21 cells assessed as increase in Dicer-mediated 5'-gamma32P-ATP labeled pre-miRNA processing at 5 uM after 15 mins by gel electrophoresis assay).
`O=c1oc2c(O)c(O)cc3c(=O)oc4c(O)c(O)cc1c4c23` [ELLAGIC ACID] was tested, and the inhibition was “Active”.
